From US20050203124A1, “Compounds for the sustained reduction of body weight” (Boehringer Ingelheim International GmbH, priority 2004, published 2005)

Test: Clinical studies: monitoring of body weight (vital sign) under multiple ascending doses
Format: in vivo, patients
Description: Clinical Studies have been carried out in order to compare the maintenance doses of the compounds of formula IA, including its metabolite IB, that were used in 3 studies.
The studies were randomized, double-blind, placebo-controlled per ascending dose group. The studies were designed to assess the safety, tolerability, phamacokinetics (PK), and preliminary efficacy of multiple ascending doses of the compound of formula IA in patients with possible Alzheimer's Disease (AD).
Two studies were performed consecutively with 0.125/0.25 and 0.5/1.0 mg of the compound of formula IA daily every morning to assess the safety and preliminary efficacy of multiple given for 28 days in those patients. After the completion of the first two studies a […] was initiated in elderly volunteers in order to investigate the safety and PK of a median dose of 0.75 mg of the compound of formula IA daily in the morning than were used in the first two studies. Depending on the maintenance dose an at least double loading dose was administrated for up to 6 days.
To determine the safety, tolerability of ascending multiple doses of the compound of formula IA (5 dose levels) given for 28 days, and to determine the preliminary multiple dose (4-week) pharmacokinetics (PK) of the compound of formula IA. […]

CCOC[C@H]1C2CCC(C[C@@H]1c1ccc(Cl)c(Cl)c1)N2C (some centres unmarked) [Compound of formula IA]
body weight under treatment (change in weight, FIGS. 3 and 4) (patients with possible Alzheimer's Disease / elderly volunteers, aged 55 to 80, 0.125 to 1.0 mg daily for 28 days, placebo-controlled): clearly reduces the bodyweight
body weight after the treatment has been stopped (change in weight, FIGS. 5 and 6) (same studies, follow-up 56 to 70 days after beginning of the 28-day treatment): still further reduced
